# Measurements published in ChEMBL document CHEMBL4706640, “Structure-Based Drug Design and Synthesis of PI3Kα-Selective Inhibitor (PF-06843195)” (J Med Chem, 2021).
# Experiments:
# [1] = molecular target: PI3-kinase p110-delta/p85-alpha (Homo sapiens, UniProt O00329); test: Inhibition of recombinant human PI3K p110delta/p85alpha using phosphatidylinositol 4,5-bisphosphate as substrate preincubated for 15 mins followed by addition of ATP and measured after 30 mins by fluorescence polarisation assay; assay type: protein-complex assay
# Chain of PI3-kinase p110-delta/p85-alpha (P27986 whole entry, one chain of several, canonical isoform): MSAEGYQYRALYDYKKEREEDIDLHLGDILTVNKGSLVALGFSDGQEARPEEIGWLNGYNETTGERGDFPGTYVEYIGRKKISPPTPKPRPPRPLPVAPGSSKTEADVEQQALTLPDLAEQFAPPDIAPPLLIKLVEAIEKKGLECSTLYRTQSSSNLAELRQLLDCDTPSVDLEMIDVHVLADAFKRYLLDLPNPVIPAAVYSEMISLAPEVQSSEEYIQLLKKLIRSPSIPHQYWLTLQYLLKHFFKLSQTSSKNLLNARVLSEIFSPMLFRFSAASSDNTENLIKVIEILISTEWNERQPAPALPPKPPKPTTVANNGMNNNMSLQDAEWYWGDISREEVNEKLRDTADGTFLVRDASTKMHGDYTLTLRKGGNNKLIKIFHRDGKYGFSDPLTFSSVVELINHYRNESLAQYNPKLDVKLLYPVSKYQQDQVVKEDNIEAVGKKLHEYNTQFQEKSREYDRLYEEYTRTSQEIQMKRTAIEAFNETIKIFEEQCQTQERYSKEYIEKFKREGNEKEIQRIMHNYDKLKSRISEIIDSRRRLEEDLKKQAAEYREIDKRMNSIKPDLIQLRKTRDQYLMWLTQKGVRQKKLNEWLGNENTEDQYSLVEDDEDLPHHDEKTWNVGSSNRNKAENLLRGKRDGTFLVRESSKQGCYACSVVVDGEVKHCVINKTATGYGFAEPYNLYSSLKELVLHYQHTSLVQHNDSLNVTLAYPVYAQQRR
# [2] = molecular target: T1, Phosphatidylinositol 4,5-bisphosphate 3-kinase catalytic subunit delta isoform (Homo sapiens, UniProt O00329); test: Inhibition of recombinant human N-terminal Myr signal and C-terminal Flag-tagged PI3K p110delta expressed in rat Rat1 cells; assay type: cell-based
# T1 sequence (O00329 whole entry): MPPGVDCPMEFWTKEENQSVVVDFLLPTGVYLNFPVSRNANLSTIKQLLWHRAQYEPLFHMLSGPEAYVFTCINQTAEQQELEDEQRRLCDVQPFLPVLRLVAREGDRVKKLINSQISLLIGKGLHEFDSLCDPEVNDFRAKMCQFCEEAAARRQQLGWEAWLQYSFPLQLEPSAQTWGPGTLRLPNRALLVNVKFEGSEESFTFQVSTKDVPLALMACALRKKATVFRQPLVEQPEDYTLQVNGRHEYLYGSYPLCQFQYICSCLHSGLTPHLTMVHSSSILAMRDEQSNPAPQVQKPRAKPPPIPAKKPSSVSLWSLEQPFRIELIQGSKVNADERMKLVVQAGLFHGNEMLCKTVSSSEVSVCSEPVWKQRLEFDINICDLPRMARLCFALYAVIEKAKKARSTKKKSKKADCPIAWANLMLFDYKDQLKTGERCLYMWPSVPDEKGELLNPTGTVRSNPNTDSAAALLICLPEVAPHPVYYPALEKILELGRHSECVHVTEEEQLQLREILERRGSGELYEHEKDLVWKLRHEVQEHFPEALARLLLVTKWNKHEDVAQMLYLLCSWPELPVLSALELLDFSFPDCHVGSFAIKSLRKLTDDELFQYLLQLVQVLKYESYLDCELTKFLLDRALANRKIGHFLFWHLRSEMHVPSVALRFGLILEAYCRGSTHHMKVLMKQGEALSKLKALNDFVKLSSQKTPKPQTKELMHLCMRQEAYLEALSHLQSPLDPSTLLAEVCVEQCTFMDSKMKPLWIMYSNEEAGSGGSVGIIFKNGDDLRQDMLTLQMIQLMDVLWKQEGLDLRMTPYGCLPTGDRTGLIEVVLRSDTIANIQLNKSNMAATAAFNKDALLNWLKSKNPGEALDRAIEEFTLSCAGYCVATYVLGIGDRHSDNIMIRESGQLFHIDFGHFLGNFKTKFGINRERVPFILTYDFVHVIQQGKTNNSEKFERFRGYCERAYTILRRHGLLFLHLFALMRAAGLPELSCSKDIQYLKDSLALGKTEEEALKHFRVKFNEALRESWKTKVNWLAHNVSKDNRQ
# [3] = Kinetic solubility of compound; assay type: physicochemical; conditions: read-out: Kinetic_solubility
# [4] = molecular target: Phosphatidylinositol 4,5-bisphosphate 3-kinase catalytic subunit beta isoform (Homo sapiens, UniProt P42338); test: Inhibition of recombinant human N-terminal Myr signal and C-terminal Flag-tagged PI3K p110beta expressed in rat Rat1 cells; assay type: cell-based
# Chain of Phosphatidylinositol 4,5-bisphosphate 3-kinase catalytic subunit beta isoform (P42338 whole entry, canonical isoform): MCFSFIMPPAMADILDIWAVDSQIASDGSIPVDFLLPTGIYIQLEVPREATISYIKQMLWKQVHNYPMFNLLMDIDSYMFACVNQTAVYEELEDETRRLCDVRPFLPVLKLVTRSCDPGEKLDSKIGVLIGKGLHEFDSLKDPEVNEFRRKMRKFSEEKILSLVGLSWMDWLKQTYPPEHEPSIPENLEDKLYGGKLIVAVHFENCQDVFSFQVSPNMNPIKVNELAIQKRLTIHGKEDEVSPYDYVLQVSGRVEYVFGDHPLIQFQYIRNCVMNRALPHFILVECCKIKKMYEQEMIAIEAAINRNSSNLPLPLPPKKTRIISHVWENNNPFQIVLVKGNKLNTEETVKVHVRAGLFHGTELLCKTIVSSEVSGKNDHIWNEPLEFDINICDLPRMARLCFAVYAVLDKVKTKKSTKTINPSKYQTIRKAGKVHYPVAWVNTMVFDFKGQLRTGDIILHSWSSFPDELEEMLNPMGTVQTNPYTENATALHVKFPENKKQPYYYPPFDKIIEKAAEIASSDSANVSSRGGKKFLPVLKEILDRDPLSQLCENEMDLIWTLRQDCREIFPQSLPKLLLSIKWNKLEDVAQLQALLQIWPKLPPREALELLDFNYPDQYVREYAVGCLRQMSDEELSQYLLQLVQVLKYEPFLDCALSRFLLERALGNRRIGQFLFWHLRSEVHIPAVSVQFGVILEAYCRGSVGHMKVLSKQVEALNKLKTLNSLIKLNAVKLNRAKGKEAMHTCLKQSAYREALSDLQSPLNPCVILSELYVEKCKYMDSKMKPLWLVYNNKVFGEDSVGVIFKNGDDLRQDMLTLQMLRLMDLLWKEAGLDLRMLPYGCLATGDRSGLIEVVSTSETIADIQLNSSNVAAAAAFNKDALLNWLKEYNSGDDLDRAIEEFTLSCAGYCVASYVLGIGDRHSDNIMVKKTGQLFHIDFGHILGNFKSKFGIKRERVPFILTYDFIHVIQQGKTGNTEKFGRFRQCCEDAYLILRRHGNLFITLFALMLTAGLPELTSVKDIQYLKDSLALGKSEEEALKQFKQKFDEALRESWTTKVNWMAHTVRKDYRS
# [5] = Passive permeability of compound in RRCK cells; assay type: ADME, cell-based, Canis lupus familiaris, MDCKII-LE; conditions: dog, MDCK; read-out: permeability
# [6] = Apparent intrinsic clearance in human liver microsomes; assay type: ADME, Microsome; conditions: read-out: CLH(app)
# PI3K p110 beta/p85 alpha = PI3K p110 beta/p85 alpha (Homo sapiens, UniProt P42338); test: Inhibition of recombinant human PI3K p110beta/p85alpha using phosphatidylinositol 4,5-bisphosphate as substrate preincubated for 15 mins followed by addition of ATP and measured after 30 mins by fluorescence polarisation assay; assay type: protein-complex assay
# Chain of PI3K p110 beta/p85 alpha (P27986 whole entry): as the sequence (P27986 whole entry, one chain of several, canonical isoform) above
# Chain of PI3K p110 beta/p85 alpha (P42338 whole entry): as the sequence (P42338 whole entry, canonical isoform) above
# [7] = Distribution coefficient, logD of compound at pH 7.4; assay type: physicochemical; conditions: octanol/water
# [8] = molecular target: Phosphatidylinositol 4,5-bisphosphate 3-kinase catalytic subunit alpha isoform (Homo sapiens, UniProt P42336); test: Inhibition of recombinant human N-terminal Myr signal and C-terminal Flag-tagged PI3K p110alpha expressed in rat Rat1 cells; assay type: cell-based
# Chain of Phosphatidylinositol 4,5-bisphosphate 3-kinase catalytic subunit alpha isoform (P42336 whole entry, canonical isoform): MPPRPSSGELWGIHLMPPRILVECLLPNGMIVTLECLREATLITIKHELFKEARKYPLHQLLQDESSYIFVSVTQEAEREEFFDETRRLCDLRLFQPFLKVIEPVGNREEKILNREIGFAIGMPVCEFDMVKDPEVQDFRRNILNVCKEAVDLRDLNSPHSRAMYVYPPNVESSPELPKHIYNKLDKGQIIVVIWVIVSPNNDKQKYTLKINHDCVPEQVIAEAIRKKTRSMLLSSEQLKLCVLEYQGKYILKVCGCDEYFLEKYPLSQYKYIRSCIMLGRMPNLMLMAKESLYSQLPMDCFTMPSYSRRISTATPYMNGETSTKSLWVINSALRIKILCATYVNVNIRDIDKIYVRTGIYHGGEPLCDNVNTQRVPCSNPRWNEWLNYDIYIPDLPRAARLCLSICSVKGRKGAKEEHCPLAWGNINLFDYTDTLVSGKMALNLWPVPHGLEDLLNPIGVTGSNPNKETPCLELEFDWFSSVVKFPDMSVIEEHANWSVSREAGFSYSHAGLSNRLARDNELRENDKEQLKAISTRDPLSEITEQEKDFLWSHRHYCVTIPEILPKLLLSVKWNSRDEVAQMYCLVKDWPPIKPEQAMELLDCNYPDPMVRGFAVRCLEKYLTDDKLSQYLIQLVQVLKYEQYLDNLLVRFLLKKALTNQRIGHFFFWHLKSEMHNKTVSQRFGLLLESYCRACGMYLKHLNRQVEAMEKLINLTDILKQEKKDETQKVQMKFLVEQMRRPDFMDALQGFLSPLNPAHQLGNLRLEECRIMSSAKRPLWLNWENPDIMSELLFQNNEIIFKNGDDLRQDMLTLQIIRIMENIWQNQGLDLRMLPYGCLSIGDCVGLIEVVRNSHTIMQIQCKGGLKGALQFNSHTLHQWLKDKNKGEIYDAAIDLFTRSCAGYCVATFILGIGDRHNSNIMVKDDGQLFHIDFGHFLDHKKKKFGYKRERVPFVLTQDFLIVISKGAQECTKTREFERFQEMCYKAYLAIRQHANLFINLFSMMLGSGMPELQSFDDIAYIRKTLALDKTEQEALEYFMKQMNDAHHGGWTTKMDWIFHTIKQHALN
# [9] = molecular target: PI3-kinase p110-alpha/p85-alpha (Homo sapiens, UniProt P42336); test: Inhibition of recombinant human full-length PI3K p110alpha/p85alpha (322 to 600) expressed in baculovirus infected Sf21 cells using phosphatidylinositol 4,5-bisphosphate as substrate preincubated for 15 mins followed by addition of ATP and measured after 30 mins by fluorescence polarisation assay
# Chain of PI3-kinase p110-alpha/p85-alpha (P27986 whole entry): as the sequence (P27986 whole entry, one chain of several, canonical isoform) above
# Chain of PI3-kinase p110-alpha/p85-alpha (P42336 whole entry): as the sequence (P42336 whole entry, canonical isoform) above
SMILES,Ki [1],IC50 [2],solubility kinetic [3],IC50 [4],Papp [5],microsomal CLint [6],Ki (PI3K p110 beta/p85 alpha),logD [7],IC50 [8],Ki [9]
CC(C)(C)OC(=O)N1CC[C@](CO)(Nc2cc(-c3cnc(N)nc3)nc(N3CCOCC3)n2)C1,2.1 nM,1200 nM,460 µM,4600 nM,18 ×10⁻⁶ cm/s,140 µL/min/mg,54 nM,2.7,–,–
CC(C)(C)OC(=O)N1CC[C@](C)(Nc2cc(-c3cnc(N)nc3)nc(N3CCOCC3)n2)C1,5.1 nM,460 nM,270 µM,5000 nM,11 ×10⁻⁶ cm/s,110 µL/min/mg,68 nM,3.8,110 nM,–
CS(=O)(=O)N1CC[C@](CO)(Nc2cc(-c3cnc(N)nc3)nc(N3CCOCC3)n2)C1,< 0.28 nM,> 10000 nM,–,> 10000 nM,0.22 ×10⁻⁶ cm/s,< 8 µL/min/mg,11 nM,0.79,1300 nM,–
Nc1ncc(-c2nc(N3CCOCC3)nc3c2CCN3[C@H]2CCNC2)cn1,40 nM,–,430 µM,–,1.9 ×10⁻⁶ cm/s,13 µL/min/mg,17 nM,-0.74,–,2.1 nM
CC(C)(O)C(=O)N1CC[C@](C)(N2CCc3c(-c4cnc(N)nc4)nc(N4CCOCC4)nc32)C1,6.7 nM,150 nM,460 µM,1000 nM,25 ×10⁻⁶ cm/s,16 µL/min/mg,46 nM,2,53 nM,0.03 nM
COC(=O)N1CC[C@](C)(N2CCc3c(-c4cnc(N)nc4)nc(N4CCOCC4)nc32)C1,< 0.28 nM,13 nM,490 µM,45 nM,27 ×10⁻⁶ cm/s,29 µL/min/mg,0.79 nM,2.6,5 nM,< 0.023 nM
COC(=O)N1CC[C@](CO)(Nc2nc(N3CCOCC3)nc(-c3cnc(N)nc3)c2F)C1,< 0.28 nM,300 nM,42 µM,360 nM,6.2 ×10⁻⁶ cm/s,< 8 µL/min/mg,5 nM,1.6,47 nM,< 0.018 nM
CC(=O)N1CC[C@@](C)(N2CCc3c(-c4cnc(N)nc4)nc(N4CCOCC4)nc32)C1,1.2 nM,74 nM,520 µM,95 nM,16 ×10⁻⁶ cm/s,< 8 µL/min/mg,6.7 nM,1.6,35 nM,0.078 nM
CC(C)C(=O)N1CC[C@](CO)(Nc2cc(-c3cnc(N)nc3)nc(N3CCOCC3)n2)C1,< 0.28 nM,> 10000 nM,540 µM,> 10000 nM,0.19 ×10⁻⁶ cm/s,17 µL/min/mg,19 nM,1.4,–,–
CNC(=O)N1CC[C@](C)(N2CCc3c(-c4cnc(N)nc4)nc(N4CCOCC4)nc32)C1,0.72 nM,110 nM,460 µM,410 nM,13 ×10⁻⁶ cm/s,< 11 µL/min/mg,24 nM,1.7,73 nM,0.084 nM
Nc1ncc(-c2cc(N[C@@]3(CO)CCN(C(=O)OCC(F)F)C3)nc(N3CCOCC3)n2)cn1,< 0.28 nM,1000 nM,9.9 µM,1900 nM,3.9 ×10⁻⁶ cm/s,17 µL/min/mg,4 nM,1.7,52 nM,–
CS(=O)(=O)N1CC[C@H](N2CCc3c(-c4cnc(N)nc4)nc(N4CCOCC4)nc32)C1,4.5 nM,–,61 µM,–,18 ×10⁻⁶ cm/s,< 8 µL/min/mg,16 nM,1.3,–,0.15 nM
Nc1ncc(-c2ccnc(N3CCOCC3)n2)cn1,81 nM,–,210 µM,–,28 ×10⁻⁶ cm/s,–,15 nM,1.5,–,–
C[C@]1(N2CCc3c(-c4cnc(N)nc4)nc(N4CCOCC4)nc32)CCN(S(C)(=O)=O)C1,0.26 nM,76 nM,540 µM,150 nM,26 ×10⁻⁶ cm/s,36 µL/min/mg,9.1 nM,1.6,34 nM,< 0.029 nM
CNS(=O)(=O)N1CC[C@](C)(N2CCc3c(-c4cnc(N)nc4)nc(N4CCOCC4)nc32)C1,< 0.28 nM,44 nM,510 µM,170 nM,24 ×10⁻⁶ cm/s,20 µL/min/mg,4.9 nM,1.9,27 nM,< 0.018 nM
COC(=O)N1CC[C@H](N2CCc3c(-c4cnc(N)nc4)nc(N4CCOCC4)nc32)C1,9.6 nM,–,56 µM,–,20 ×10⁻⁶ cm/s,< 8 µL/min/mg,36 nM,1.9,–,–
COC(=O)N1CC[C@](CO)(Nc2cc(-c3cnc(N)nc3)nc(N3CCOCC3)n2)C1,< 0.28 nM,2300 nM,19 µM,1800 nM,1 ×10⁻⁶ cm/s,13 µL/min/mg,1.7 nM,1.5,91 nM,–
CNC(=O)N1CC[C@H](N2CCc3c(-c4cnc(N)nc4)nc(N4CCOCC4)nc32)C1,3.7 nM,–,390 µM,–,6.1 ×10⁻⁶ cm/s,< 8 µL/min/mg,24 nM,1.3,–,0.58 nM
